Results: paper PMC11182288, “Effects of Netarsudil-Family Rho Kinase Inhibitors on Human Trabecular Meshwork Cell Contractility and Actin Remodeling Using a Bioengineered ECM Hydrogel” (Frontiers in Ophthalmology, 2022)
Entries after “also recorded” stand apart in the source; their conditions may differ. Where two headings read alike, the source gives them in different places.

Tests used:
ROCK1 = biological target: T1, ROCK1 (Homo sapiens, UniProt Q13464); test: ROCK1 protein kinase assay (Kinase-Glo Luminescent Kinase Assay); format: biochemical
T1 construct: purchased Invitrogen; Thermo Fisher Scientific
T1 sequence (Q13464 whole entry): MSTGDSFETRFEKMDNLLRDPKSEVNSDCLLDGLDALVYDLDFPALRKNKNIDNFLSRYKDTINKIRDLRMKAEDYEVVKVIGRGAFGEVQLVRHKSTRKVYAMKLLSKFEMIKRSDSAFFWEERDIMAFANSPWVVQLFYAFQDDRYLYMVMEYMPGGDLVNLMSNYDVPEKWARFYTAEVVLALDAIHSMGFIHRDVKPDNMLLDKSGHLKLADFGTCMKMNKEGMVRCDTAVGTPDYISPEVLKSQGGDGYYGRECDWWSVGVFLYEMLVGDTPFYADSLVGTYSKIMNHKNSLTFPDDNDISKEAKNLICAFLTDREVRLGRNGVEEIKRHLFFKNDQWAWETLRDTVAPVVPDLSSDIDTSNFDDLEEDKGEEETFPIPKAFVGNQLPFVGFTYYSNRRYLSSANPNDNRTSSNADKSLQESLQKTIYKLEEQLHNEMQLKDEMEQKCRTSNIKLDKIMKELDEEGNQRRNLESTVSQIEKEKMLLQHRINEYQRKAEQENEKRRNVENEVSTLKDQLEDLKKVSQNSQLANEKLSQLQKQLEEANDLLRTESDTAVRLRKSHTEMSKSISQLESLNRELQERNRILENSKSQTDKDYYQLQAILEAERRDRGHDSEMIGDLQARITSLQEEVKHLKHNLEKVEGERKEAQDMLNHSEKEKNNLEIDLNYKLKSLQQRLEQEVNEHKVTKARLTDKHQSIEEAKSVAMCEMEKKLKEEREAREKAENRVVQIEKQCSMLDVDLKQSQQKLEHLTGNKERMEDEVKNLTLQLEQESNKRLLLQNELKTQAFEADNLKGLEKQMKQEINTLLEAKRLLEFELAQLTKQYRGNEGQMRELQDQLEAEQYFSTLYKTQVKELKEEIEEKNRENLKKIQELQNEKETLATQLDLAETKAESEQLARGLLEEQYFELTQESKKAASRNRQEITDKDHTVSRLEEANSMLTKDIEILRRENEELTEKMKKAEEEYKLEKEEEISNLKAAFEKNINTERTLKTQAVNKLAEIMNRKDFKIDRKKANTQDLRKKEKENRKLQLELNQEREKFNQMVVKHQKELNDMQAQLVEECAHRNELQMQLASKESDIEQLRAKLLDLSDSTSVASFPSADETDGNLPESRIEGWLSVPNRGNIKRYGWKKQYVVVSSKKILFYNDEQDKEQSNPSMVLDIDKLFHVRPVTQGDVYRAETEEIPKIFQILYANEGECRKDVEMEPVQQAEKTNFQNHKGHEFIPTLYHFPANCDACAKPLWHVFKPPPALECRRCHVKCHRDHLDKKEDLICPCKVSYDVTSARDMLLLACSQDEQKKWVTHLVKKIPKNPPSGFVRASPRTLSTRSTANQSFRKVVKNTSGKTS
Procedure: (§1) Dose response analyses were conducted to establish IC50 values, which were converted to Ki values using the Cheng-Prusoff Equation Ki = IC50/(1 + ([ATP]/Km ATP).

ROCK2 = biological target: T2, ROCK2 (Homo sapiens, UniProt O75116); test: ROCK2 protein kinase assay (Kinase-Glo Luminescent Kinase Assay); format: biochemical
T2 construct: purchased Invitrogen; Thermo Fisher Scientific
T2 sequence (O75116 whole entry): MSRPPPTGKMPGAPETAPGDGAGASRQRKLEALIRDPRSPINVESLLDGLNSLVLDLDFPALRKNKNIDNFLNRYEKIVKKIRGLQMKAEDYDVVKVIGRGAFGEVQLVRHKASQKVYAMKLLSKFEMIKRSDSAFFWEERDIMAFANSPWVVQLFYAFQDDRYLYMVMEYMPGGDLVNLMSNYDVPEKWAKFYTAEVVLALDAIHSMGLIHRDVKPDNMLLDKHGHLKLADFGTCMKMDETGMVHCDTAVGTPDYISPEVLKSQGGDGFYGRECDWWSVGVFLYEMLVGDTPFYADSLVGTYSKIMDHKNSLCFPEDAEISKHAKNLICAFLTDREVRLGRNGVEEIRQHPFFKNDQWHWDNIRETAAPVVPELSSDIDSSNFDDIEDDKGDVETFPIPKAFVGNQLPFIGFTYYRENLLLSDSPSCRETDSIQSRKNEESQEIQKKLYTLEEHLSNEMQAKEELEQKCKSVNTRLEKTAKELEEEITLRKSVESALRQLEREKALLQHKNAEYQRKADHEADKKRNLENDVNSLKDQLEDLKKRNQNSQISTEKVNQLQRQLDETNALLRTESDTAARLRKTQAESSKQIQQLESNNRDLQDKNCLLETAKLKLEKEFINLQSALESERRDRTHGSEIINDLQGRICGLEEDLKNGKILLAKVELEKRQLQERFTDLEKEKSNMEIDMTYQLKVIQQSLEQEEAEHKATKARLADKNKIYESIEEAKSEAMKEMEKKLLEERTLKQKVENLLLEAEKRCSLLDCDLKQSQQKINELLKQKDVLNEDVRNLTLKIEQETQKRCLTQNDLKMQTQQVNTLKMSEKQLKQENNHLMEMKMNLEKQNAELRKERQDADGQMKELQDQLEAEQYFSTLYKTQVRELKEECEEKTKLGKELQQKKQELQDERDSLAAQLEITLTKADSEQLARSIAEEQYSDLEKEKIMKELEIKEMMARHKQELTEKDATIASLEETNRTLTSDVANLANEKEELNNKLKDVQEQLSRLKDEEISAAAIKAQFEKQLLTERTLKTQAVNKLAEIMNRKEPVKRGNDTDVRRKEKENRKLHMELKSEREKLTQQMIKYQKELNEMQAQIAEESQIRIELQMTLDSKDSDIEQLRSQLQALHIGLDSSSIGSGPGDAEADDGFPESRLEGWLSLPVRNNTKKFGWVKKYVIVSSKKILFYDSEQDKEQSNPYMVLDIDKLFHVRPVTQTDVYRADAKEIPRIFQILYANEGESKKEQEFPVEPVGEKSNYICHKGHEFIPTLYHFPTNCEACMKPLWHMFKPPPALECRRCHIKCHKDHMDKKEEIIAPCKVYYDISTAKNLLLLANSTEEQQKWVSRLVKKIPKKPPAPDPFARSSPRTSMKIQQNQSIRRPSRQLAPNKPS
Procedure: as §1

[1] = test system: transformed HTM cells (TM-1); test: Cell-based assay measuring disruption of focal adhesions (paxillin staining); parameters: species or system human; details: 6 h, TM-1 cells on fibronectin-coated glass, Mean ± SEM, N ≥ 3
Procedure: Cell-based assays measuring disruption of focal adhesions were conducted using transformed HTM cells (TM-1; kind gift from Donna Peters; Department of Ophthalmology and Visual Sciences, University of Wisconsin), as previously described ([39]). […] TM-1 cells were stained with an anti-paxillin primary antibody followed by incubation with an Alexa Fluor-488 fluorescent secondary antibody and Hoechst 33342 counterstain (all from Invitrogen) to reveal focal adhesions and nuclei, respectively. Images were collected on an INCell 1000 imager (GE Healthcare, Marlborough, MA, USA), and total area of focal adhesions was measured using a custom algorithm developed using the INCell Developer Toolbox, v1.6. Dose response analyses were conducted to establish IC50 values.

[2] = test system: HTM cell-encapsulated ECM hydrogels; test: HTM hydrogel contraction analysis after TGFβ2 induction and ROCKi rescue; format: cell-based, human; details: for HTM hydrogel contraction reversal compared with 10 µM Y27632 / Concentrations giving significantly decreased HTM hydrogel contraction compared to the TGFβ2 group / EC50: HTM07; for Concentrations giving significantly decreased HTM hydrogel contraction compared to the TGFβ2 group: dose range 0.0001-1.0 µM, 5-10 d; for EC50 / Increase of HTM hydrogel contraction over controls: TGFβ2 2.5 ng/ml 0-5 d; for EC50: then ROCKi 0.0001-1.0 µM 5-10 d, read-out: EC50, reduction of TGFβ2-induced HTM hydrogel contraction
Procedure: HTM cells (1.0 × 10^6 cells/ml) were thoroughly mixed with MA-COL (3.6 mg/ml), SH-HA (0.5 mg/ml, 0.025% (w/v) photoinitiator) and SH-ELP (2.5 mg/ml) on ice ( Supplementary Figure 2A ), followed by pipetting 10 μl droplets of the HTM cell-laden hydrogel precursor solution onto polydimethylsiloxane-coated (PDMS; Sylgard 184; Dow Corning) 24-well culture plates ( Supplementary Figure 2B ), according to our established protocols ([32]–[34]). Alternatively, 30 µl droplets of the HTM cell-laden hydrogel precursor solution were pipetted onto Surfasil-coated (Fisher Scientific) 18 × 18-mm square glass coverslips followed by placing a regular 12-mm round glass coverslip onto the hydrogels to facilitate even spreading of the polymer solution. HTM hydrogels were crosslinked by exposure to UV light (OmniCure S1500 UV Spot Curing System; Excelitas Technologies, Mississauga, Ontario, Canada) at 320-500 nm, 2.2 W/cm^2 for 5 s. The HTM hydrogel-adhered coverslips were removed with fine-tipped tweezers and placed hydrogel-side facing up in PDMS-coated 24-well culture plates ( Supplementary Figure 2C ).
Longitudinal brightfield images of HTM hydrogels subjected to the different treatments were acquired at 0 d and 10 d with an Eclipse Ti microscope (Nikon Instruments, Melville, NY, USA). Construct area was measured using Fiji software (National Institutes of Health (NIH), Bethesda, MD, USA) and normalized to 0 d followed by normalization to controls.

[3] = test system: F-actin stress fibers in hydrogel-encapsulated HTM cells; test: HTM hydrogel immunocytochemistry, F-actin stress fibers; format: cell-based, human; details: for Effect on TGFβ2-induced F-actin stress fibers vs. TGFβ2 group: HTM05, HTM07, HTM36
Procedure: Alternatively, 30 µl droplets of the HTM cell-laden hydrogel precursor solution were pipetted onto Surfasil-coated (Fisher Scientific) 18 × 18-mm square glass coverslips followed by placing a regular 12-mm round glass coverslip onto the hydrogels to facilitate even spreading of the polymer solution. HTM hydrogels were crosslinked by exposure to UV light (OmniCure S1500 UV Spot Curing System; Excelitas Technologies, Mississauga, Ontario, Canada) at 320-500 nm, 2.2 W/cm^2 for 5 s. The HTM hydrogel-adhered coverslips were removed with fine-tipped tweezers and placed hydrogel-side facing up in PDMS-coated 24-well culture plates ( Supplementary Figure 2C ).
Nuclei were counterstained with 4′,6′-diamidino-2-phenylindole (DAPI; Abcam). Coverslips were mounted with ProLong™ Gold Antifade (Invitrogen) on Superfrost™ microscope slides (Fisher Scientific), and fluorescent images were acquired with a Zeiss LSM 780 confocal microscope (Zeiss, Germany). […] Individual z-stacks consisted of 7 slices with the z-step interval set to […]. Fluorescence signal intensity of F-actin and αSMA were determined using Z-project maximum intensity projections in Fiji (NIH) with image background subtraction.

ROCK1/2 [4] = test: ROCK1/2 kinase assays, average of both isoforms; format: biochemical, human; details: average of ROCK1 and ROCK2 Ki
Procedure: as §1

[5] = test system: normotensive Dutch Belted rabbits; parameters: method as in unpublished data; details: ref unpublished data; cited from earlier work
cellular esterases = details: stated in discussion, no reference given; cited from earlier work
[6] = test system: transformed HTM cells (TM-1); details: same cell-based assay; ref [13]; read-out: IC50 of Y27632, HTM cell focal adhesion disruption; cited from earlier work
ROCK1/2 [7] = details: same biochemical assay; ref [13]; read-out: Ki of Y27632; cited from earlier work
[8] = stated in discussion, no reference given; cited from earlier work
[9] = each compound at its respective EC50, HTM05, HTM07, HTM36
[10] = each compound at its respective EC50, across HTM05, HTM07, HTM36, 10 d
[11] = each compound at its respective EC50
[12] = each compound at its respective EC50, pooled HTM05, HTM07, HTM36, 10 d
[13] = TGFβ2 induction group, across three cell strains

Molecule: NC[C@@H](C(=O)Nc1ccc2cnccc2c1)c1ccc(Cl)cc1 [Compound C]
- Ki (ROCK1): 1.8 ± 0.3 nM
- Ki (ROCK2): 1.2 ± 0.4 nM
- IC50 ([1]; Homo sapiens): ~5.6 nM
- HTM hydrogel contraction reversal compared with 10 µM Y27632 ([2]; compound at 1.0 µM): comparable
- Concentrations giving significantly decreased HTM hydrogel contraction compared to the TGFβ2 group [2]: ≥ 0.01 µM
- EC50 ([2]; Homo sapiens, HTM): 6.7 nM
- Effect on TGFβ2-induced HTM hydrogel contraction vs. TGFβ2 group [2, 9]: failed to rescue
- Relative hydrogel size vs. controls [2, 10]: ~ 87%
- Effect on TGFβ2-induced F-actin stress fibers vs. TGFβ2 group [3, 11]: significantly different from TGFβ2
- Relative F-actin signal fold-change vs. controls [3, 12]: ~ 1.3 fold-change
- Ki (ROCK1/2 [4]): ~1.5 nM
- Intraocular pressure lowering [5]: did not perform as well; also recorded: unable to significantly lower intraocular pressure
- Metabolism by cellular esterases (ester hydrolysis) (cellular esterases): cannot be metabolized by cellular esterases at all

Molecule: C[C@@H](N)[C@H]1CC[C@H](C(=O)Nc2ccncc2)CC1 [Compound Y27632, Y27632]
- IC50 [6]: ~1740 nM
- Ki (ROCK1/2 [7]): ~31.5 nM

Molecule: NC[C@@H](C(=O)Nc1ccc2cnccc2c1Cl)c1ccccc1 [Compound B]
- Ki (ROCK1): 1.7 nM
- Ki (ROCK2): 2 nM
- Concentrations giving significantly decreased HTM hydrogel contraction compared to the TGFβ2 group [2]: ≥ 0.1 µM
- EC50 ([2]; Homo sapiens, HTM): 22.2 nM
- Effect on TGFβ2-induced HTM hydrogel contraction vs. TGFβ2 group [2, 9]: significantly decreased TGFβ2-induced HTM hydrogel contraction using HTM05 and HTM36 cells
- Relative hydrogel size vs. controls [2, 10]: ~ 105%
- Effect on TGFβ2-induced F-actin stress fibers vs. TGFβ2 group [3, 11]: significantly decreased
- Relative F-actin signal fold-change vs. controls [3, 12]: ~ 1.1 fold-change
- Ki (ROCK1/2 [4]): ~1.9 nM
- Intraocular pressure lowering [5]: did not perform as well as netarsudil
- Metabolism by cellular esterases (ester hydrolysis) (cellular esterases): cannot be metabolized by cellular esterases at all

Molecule: NC[C@@H](C(=O)Nc1ccc2cnccc2c1)c1ccc(COC(=O)c2ccccc2)cc1 [Compound A]
- Ki (ROCK1): 1.5 ± 0.7 nM
- IC50 ([1]; Homo sapiens): ~15 nM
- HTM hydrogel contraction reversal compared with 10 µM Y27632 ([2]; compound at 1.0 µM): not different
- Concentrations giving significantly decreased HTM hydrogel contraction compared to the TGFβ2 group [2]: ≥ 0.01 µM
- EC50 ([2]; Homo sapiens, HTM): 3.7 nM
- Effect on TGFβ2-induced HTM hydrogel contraction vs. TGFβ2 group [2, 9]: failed to reverse
- Effect on TGFβ2-induced HTM hydrogel contraction, HTM36 ([2]; uniform ROCKi concentration of 35.9 nM, HTM36): significantly decreased
- Effect on TGFβ2-induced F-actin stress fibers vs. TGFβ2 group [3, 11]: not different from TGFβ2
- Ki (ROCK1/2 [4]): ~1.4 nM
- Intraocular pressure lowering [5]: did not perform as well; also recorded: unable to significantly lower intraocular pressure
- Metabolism by cellular esterases (ester hydrolysis) (cellular esterases): more quickly metabolized than netarsudil

Molecule: NC[C@@H](C(=O)Nc1ccc2cnccc2c1)c1ccc(O)cc1 [Compound D]
- Ki (ROCK1): 4.5 ± 2 nM
- Ki (ROCK2): 1.7 ± 0.7 nM
- IC50 ([1]; Homo sapiens): ~193 nM
- Concentrations giving significantly decreased HTM hydrogel contraction compared to the TGFβ2 group [2]: ≥ 0.1 µM
- EC50 ([2]; Homo sapiens, HTM): 123 nM
- Effect on TGFβ2-induced HTM hydrogel contraction vs. TGFβ2 group [2, 9]: significantly decreased
- Relative hydrogel size vs. controls [2, 10]: ~ 96%
- Effect on TGFβ2-induced F-actin stress fibers vs. TGFβ2 group [3, 11]: significantly decreased TGFβ2-induced F-actin stress fibers across all three HTM cell strains
- Relative F-actin signal fold-change vs. controls [3, 12]: ~ 0.8 fold-change
- Ki (ROCK1/2 [4]): ~3.1 nM
- Intraocular pressure lowering [5]: did not perform as well as netarsudil
- Ionization at physiological pH [8]: partially ionized at physiological pH

Molecule: Cc1ccc(C(=O)OCc2ccc([C@@H](CN)C(=O)Nc3ccc4cnccc4c3)cc2)c(C)c1 [Netarsudil]
- IC50 [1]: 17 ± 2 nM
- IC50 ([1]; listed as netarsudil): ~17 nM
- Effect on TGFβ2-induced HTM hydrogel contraction, overall across HTM07 and HTM36 [2]: significantly decreased
- EC50 [2]: 35.9 nM
- HTM hydrogel contraction reversal compared with 10 µM Y27632 ([2]; compound at 0.1 µM): equivalent
- HTM hydrogel contraction reversal compared with 10 µM Y27632 ([2]; compound at 1.0 µM): significantly more potent
- Concentrations giving significantly decreased HTM hydrogel contraction compared to the TGFβ2 group [2]: ≥ 0.01 µM
- Difference in efficacy, netarsudil 1.0 µM vs. 35.9 nM ([2]; HTM hydrogel contraction, across three cell strains): ~ 1.2 fold
- Effect on TGFβ2-induced HTM hydrogel contraction vs. TGFβ2 group [2, 9]: significantly decreased
- Effect on TGFβ2-induced F-actin stress fibers vs. TGFβ2 group [3, 11]: significantly decreased
- Effect on F-actin signal ([3]; max level netarsudil, 1.0 µM): nearly abolishing the F-actin signal
- Ki (ROCK1/2 [4]): ~2.7 nM

B1: TGFβ2: transforming growth factor beta 2, used to induce a glaucoma-like cell phenotype (protein, UniProt P61812 303-414, looked up)
Transforming growth factor …: ALDAAYCFRNVQDNCCLRPLYIDFKRDLGWKWIHEPKGYNANFCAGACPYLWSSDTQHSRVLSLYNTINPEASASPCCVSQDLEPLTILYYIGKTPKIEQLSNMIVKSCKCS
- Increase of HTM hydrogel contraction over controls ([2]; HTM05, HTM07, HTM36): ~ 25%
- Increase of HTM hydrogel contraction over controls ([2]; HTM07 and HTM36, higher passage cells): ~ 15%
- Relative hydrogel size vs. controls [2, 13]: ~ 75%
- Relative F-actin signal fold-change vs. controls [3, 13]: ~ 1.9 fold-change
